Read-outs that look alike come from different tables or passages of the source.
Experiments:
RLS subjects [1] = conditions: for IRLS QoL Total (Absolute Change) Mean / IRLS QoL Total (Absolute Change) Median / IRLS QoL Total (Percent Change) Mean / IRLS QoL Total (Percent Change) Median / IRLS QoL Total Mean / IRLS QoL Total Median: rasagiline 1 mg/day oral
Description: (§1) This was the first clinical study in which rasagiline was administered to RLS subjects. The dosage regimen of 1 mg/day rasagiline was chosen based on the optimal dosage regimen for the symptomatic treatment of PD. […] Therefore, in the event that a subject could not tolerate the 1 mg daily dose of rasagiline, a daily dose of 0.5 mg rasagiline was permitted. Rasagiline was administered orally as a tablet. Both the 1 mg and 0.5 mg rasagiline tablets were beveled round tablets, flat, white to off-white, scored on one side, plain on the other side. Teva Pharmaceutical Industries Ltd. was responsible for the manufacture and primary packaging of study medications according to current Good Manufacturing Practice (cGMP) principles and guidelines applicable to investigational medicinal products.
The Restless Leg Syndrome Quality of Life questionnaire (RLS QoL) assesses the impact of RLS on daily life, emotional well-being, social life and work life. It is an 18-item questionnaire with a total score ranging 0 to 100. […] The lower the score, the greater the impact of RLS on quality of life.
The RLS QoL questionnaire was completed by the investigator at the baseline and Week 4, and 8 visits. The change from baseline to each post-baseline study visit was calculated as an additional efficacy endpoint.

RLS subjects [2] = conditions: for Optimal Sleep (Absolute Change) Mean / Optimal Sleep (Absolute Change) Median / Optimal Sleep (Percent Change) Mean / Optimal Sleep (Percent Change) Median / Optimal Sleep Scale Mean / Optimal Sleep Scale Median / Sleep Quantity (Absolute Change) Mean / Sleep Quantity (Absolute Change) Median / Sleep Quantity (Percent Change) Mean / Sleep Quantity (Percent Change) Median / Sleep Quantity (raw score) Mean / Sleep Quantity (raw score) Median / Sleep Snoring (Percent Change) Mean / Sleep Snoring (Percent Change) Median / Short of Breath Scale Mean / Short of Breath Scale Median / Sleep Adequacy (Absolute Change) Mean / Sleep Adequacy (Absolute Change) Median / Sleep Adequacy (Percent Change) Mean / Sleep Adequacy (Percent Change) Median / Sleep Adequacy Mean / Sleep Adequacy Median / Sleep Disturbance (Absolute Change) Mean / Sleep Disturbance (Absolute Change) Median / Sleep Disturbance (Percent Change) Mean / Sleep Disturbance (Percent Change) Median / Sleep Disturbance Scale Mean / Sleep Disturbance Scale Median / Sleep Problems Index I (Absolute Change) Mean / Sleep Problems Index I (Absolute Change) Median / Sleep Problems Index I (Percent Change) Mean / Sleep Problems Index I (Percent Change) Median / Sleep Problems Index I Mean / Sleep Problems Index I Median / Sleep Problems Index II (Absolute Change) Mean / Sleep Problems Index II (Absolute Change) Median / Sleep Problems Index II (Percent Change) Mean / Sleep Problems Index II (Percent Change) Median / Sleep Problems Index II Mean / Sleep Problems Index II Median / Sleep Short of Breath (Absolute Change) Mean / Sleep Short of Breath (Absolute Change) Median / Sleep Snoring (Absolute Change) Mean / Sleep Snoring (Absolute Change) Median / Sleep Somnolence (Absolute Change) Mean / Sleep Somnolence (Absolute Change) Median / Sleep Somnolence (Percent Change) Mean / Sleep Somnolence (Percent Change) Median / Snoring Scale Mean / Snoring Scale Median / Somnolence Scale Mean / Somnolence Scale Median: rasagiline 1 mg/day oral
Description: as §1
The Sleep Scale is a 12-item scale that provides a comprehensive view across almost all dimensions of sleep including daytime somnolence, sleep disturbance, sleep adequacy and sleep quantity. The investigator scored subjects on this scale at the baseline and Week 4, and 8 visits. The change from baseline to each post-baseline study visit was calculated as a secondary efficacy endpoint. (Hays, R. D. & Steward, A. L. (1992). Sleep measures. In A. L. Stewart & J. E. Ware (eds.), Measuring functioning and well-being: The Medical Outcomes Study approach (pp. 235-259), Durham, NC: Duke University Press.
N is the number of participants in the study. A low score indicates the absence of problems and a high score indicates a very severe problem.

[3] = tested on: patients with moderate to severe primary Restless Legs Syndrome; test: Placebo-controlled, double-blind, randomized clinical test in primary RLS (Example 8)
[4] = by eight weeks, remaining subject

## C#CCN[C@@H]1CCc2ccccc21 [rasagiline, R-(+)-N-propargyl-1-aminoindan]
RLS subjects [1]; VISIT WEEK 4, N=2
  IRLS QoL Total (Absolute Change) Mean: 16.67
  IRLS QoL Total (Absolute Change) Median: 16.67
  IRLS QoL Total (Percent Change) Mean: 35.19%
  IRLS QoL Total (Percent Change) Median: 35.19%
  IRLS QoL Total Mean: 62.92
  IRLS QoL Total Median: 62.92
RLS subjects [1]; VISIT WEEK 8, N=1
  IRLS QoL Total (Absolute Change) Mean: 25.00
  IRLS QoL Total (Absolute Change) Median: 25.00
  IRLS QoL Total (Percent Change) Mean: 37.04%
  IRLS QoL Total (Percent Change) Median: 37.04%
  IRLS QoL Total Mean: 92.50
  IRLS QoL Total Median: 92.50
RLS subjects [1]; [4]
  improvement in the IRLS Quality of Life Questionnaire compared to baseline: 37%
RLS subjects [2]; VISIT WEEK 4, N=1
  Optimal Sleep (Absolute Change) Mean: 0.00
  Optimal Sleep (Absolute Change) Median: 0.00
  Optimal Sleep (Percent Change) Mean: 0.00%
  Optimal Sleep (Percent Change) Median: 0.00%
  Optimal Sleep Scale Mean: 1.00
  Optimal Sleep Scale Median: 1.00
  Sleep Quantity (Absolute Change) Mean: 0.00
  Sleep Quantity (Absolute Change) Median: 0.00
  Sleep Quantity (Percent Change) Mean: 0.00%
  Sleep Quantity (Percent Change) Median: 0.00%
  Sleep Quantity (raw score) Mean: 7.00
  Sleep Quantity (raw score) Median: 7.00
  Sleep Snoring (Percent Change) Mean: 0.00%
  Sleep Snoring (Percent Change) Median: 0.00%
RLS subjects [2]; VISIT WEEK 4, N=2
  Short of Breath Scale Mean: 0.00
  Short of Breath Scale Median: 0.00
  Sleep Adequacy (Absolute Change) Mean: 15.00
  Sleep Adequacy (Absolute Change) Median: 15.00
  Sleep Adequacy (Percent Change) Mean: 25.00%
  Sleep Adequacy (Percent Change) Median: 25.00%
  Sleep Adequacy Mean: 55.00
  Sleep Adequacy Median: 55.00
  Sleep Disturbance (Absolute Change) Mean: −7.50
  Sleep Disturbance (Absolute Change) Median: −7.50
  Sleep Disturbance (Percent Change) Mean: −20.00%
  Sleep Disturbance (Percent Change) Median: −20.00%
  Sleep Disturbance Scale Mean: 33.75
  Sleep Disturbance Scale Median: 33.75
  Sleep Problems Index I (Absolute Change) Mean: −6.67
  Sleep Problems Index I (Absolute Change) Median: −6.67
  Sleep Problems Index I (Percent Change) Mean: −40.00%
  Sleep Problems Index I (Percent Change) Median: −40.00%
  Sleep Problems Index I Mean: 26.67
  Sleep Problems Index I Median: 26.67
  Sleep Problems Index II (Absolute Change) Mean: −6.67
  Sleep Problems Index II (Absolute Change) Median: −6.67
  Sleep Problems Index II (Percent Change) Mean: 24.00%
  Sleep Problems Index II (Percent Change) Median: −24.00%
  Sleep Problems Index II Mean: 33.89
  Sleep Problems Index II Median: 33.89
  Sleep Short of Breath (Absolute Change) Mean: 0.00
  Sleep Short of Breath (Absolute Change) Median: 0.00
  Sleep Snoring (Absolute Change) Mean: 0.00
  Sleep Snoring (Absolute Change) Median: 0.00
  Sleep Somnolence (Absolute Change) Mean: −0.00
  Sleep Somnolence (Absolute Change) Median: −0.00
  Sleep Somnolence (Percent Change) Mean: −20.00%
  Sleep Somnolence (Percent Change) Median: −20.00%
  Snoring Scale Mean: 40.00
  Snoring Scale Median: 40.00
  Somnolence Scale Mean: 40.00
  Somnolence Scale Median: 40.00
RLS subjects [2]; VISIT WEEK 8, N=1
  Optimal Sleep (Absolute Change) Mean: 0.00
  Optimal Sleep (Absolute Change) Median: 0.00
  Optimal Sleep (Percent Change) Mean: 0.00%
  Optimal Sleep (Percent Change) Median: 0.00%
  Optimal Sleep Scale Mean: 1.00
  Optimal Sleep Scale Median: 1.00
  Short of Breath Scale Mean: 0.00
  Short of Breath Scale Median: 0.00
  Sleep Adequacy (Absolute Change) Mean: 40.00
  Sleep Adequacy (Absolute Change) Median: 40.00
  Sleep Adequacy (Percent Change) Mean: 66.67%
  Sleep Adequacy (Percent Change) Median: 66.67%
  Sleep Adequacy Mean: 100.00
  Sleep Adequacy Median: 100.00
  Sleep Disturbance (Absolute Change) Mean: −16.25
  Sleep Disturbance (Absolute Change) Median: −16.25
  Sleep Disturbance (Percent Change) Mean: −43.33%
  Sleep Disturbance (Percent Change) Median: −43.33%
  Sleep Disturbance Scale Mean: 21.25
  Sleep Disturbance Scale Median: 21.25
  Sleep Problems Index I (Absolute Change) Mean: −16.67
  Sleep Problems Index I (Absolute Change) Median: −16.67
  Sleep Problems Index I (Percent Change) Mean: −100.00%
  Sleep Problems Index I (Percent Change) Median: −100.00%
  Sleep Problems Index I Mean: 0.00
  Sleep Problems Index I Median: 0.00
  Sleep Problems Index II (Absolute Change) Mean: −16.11
  Sleep Problems Index II (Absolute Change) Median: −16.11
  Sleep Problems Index II (Percent Change) Mean: −58.00%
  Sleep Problems Index II (Percent Change) Median: −58.00%
  Sleep Problems Index II Mean: 11.67
  Sleep Problems Index II Median: 11.67
  Sleep Quantity (Absolute Change) Mean: 0.00
  Sleep Quantity (Absolute Change) Median: 0.00
  Sleep Quantity (Percent Change) Mean: 0.00%
  Sleep Quantity (Percent Change) Median: 0.00%
  Sleep Quantity (raw score) Mean: 7.00
  Sleep Quantity (raw score) Median: 7.00
  Sleep Short of Breath (Absolute Change) Mean: 0.00
  Sleep Short of Breath (Absolute Change) Median: 0.00
  Sleep Snoring (Absolute Change) Mean: 20.00
  Sleep Snoring (Absolute Change) Median: 20.00
  Sleep Snoring (Percent Change) Mean: 25.00%
  Sleep Snoring (Percent Change) Median: 25.00%
  Sleep Somnolence (Absolute Change) Mean: 0.00
  Sleep Somnolence (Absolute Change) Median: 0.00
  Sleep Somnolence (Percent Change) Mean: 0.00%
  Sleep Somnolence (Percent Change) Median: 0.00%
  Snoring Scale Mean: 100.00
  Snoring Scale Median: 100.00
  Somnolence Scale Mean: 13.33
  Somnolence Scale Median: 13.33
RLS subjects [2]; [4]
  improvement in the Sleep Problems Index II: 58%
[3]; 0.5 mg and 1 mg groups, in comparison with the placebo group
  IRLSSG values, change from starting value: significant improvement
[3]; end of treatment, both patient groups
  subjective symptoms (tingling, cramps and pain in the legs, restlessness, difficulties falling or remaining asleep): either disappear or diminish to a tolerable minimum
[3]; patient reports
  hallucinations, somnolence, edema, nausea, vomiting or diarrhea: does not or only to a very minimal extent causes
[3]; patients in a moderate to severe stage of RLS
  clinical improvement: distinct clinical improvement
[3]; patients with moderate to severe RLS
  tolerability and safety: well tolerated and safe

Reference: patent publication US12310929B2, “Use of rasagiline for the treatment of restless legs syndrome” (TEVA PHARMACEUTICAL INDUSTRIES, LTD., priority 2006, dated 2025)
